According to patent US6362218B1, “Brefeldin A derivatives” (Purdue Research Foundation, priority 1997, dated 2002):
“And” between values parts separate entries of the source, which are not always exact repeats. Equal entries are not always repeated.

How the values were obtained:
[1] = test system: OVCAR-3; assay: NCI human cancer cell line screen, antiproliferative activity, Ovarian OVCAR-3; assay type: cell-based; conditions: concentration corresponding to 50% growth inhibition, read-out: cytotoxicity GI50, Ovarian OVCAR-3
Description: (§1) The new synthesized brefeldin A prodrug candidates and analogs were examined for antiproliferative activity against human cancer cell lines in the National Cancer Institute screen, in which the activity of each compound was evaluated with approximately 55 different cancer cell lines of diverse tumor origins.

[2] = test system: SN12C; assay: NCI human cancer cell line screen, antiproliferative activity, Renal SN12C; assay type: cell-based; conditions: concentration corresponding to 50% growth inhibition, read-out: cytotoxicity GI50, Renal SN12C
Description: as §1

[3] = test system: all human cancer cell lines successfully tested; assay: NCI screen, mean graph midpoint over approximately 55 cancer cell lines; assay type: cell-based; conditions: average GI50 for all cell lines tested (approximately 55); test range 10^-4 to 10^-8 molar
Description: as §1

[4] = test system: SF-539; assay: NCI human cancer cell line screen, antiproliferative activity, CNS SF-539; assay type: cell-based; conditions: concentration corresponding to 50% growth inhibition, read-out: cytotoxicity GI50, CNS SF-539
Description: as §1

[5] = test system: MDA-MB-435; assay: NCI human cancer cell line screen, antiproliferative activity, Breast MDA-MB-435; assay type: cell-based; conditions: concentration corresponding to 50% growth inhibition, read-out: cytotoxicity GI50, Breast MDA-MB-435
Description: as §1

[6] = test system: DU-145; assay: NCI human cancer cell line screen, antiproliferative activity, Prostate DU-145; assay type: cell-based; conditions: concentration corresponding to 50% growth inhibition, read-out: cytotoxicity GI50, Prostate DU-145
Description: as §1

[7] = test system: UACC-62; assay: NCI human cancer cell line screen, antiproliferative activity, Melanoma UACC-62; assay type: cell-based; conditions: concentration corresponding to 50% growth inhibition, read-out: cytotoxicity GI50, Melanoma UACC-62
Description: as §1

[8] = test system: HOP-62; assay: NCI human cancer cell line screen, antiproliferative activity, Lung HOP-62; assay type: cell-based; conditions: concentration corresponding to 50% growth inhibition, read-out: cytotoxicity GI50, Lung HOP-62
Description: as §1

[9] = test system: HCT-116; assay: NCI human cancer cell line screen, antiproliferative activity, Colon HCT-116; assay type: cell-based; conditions: concentration corresponding to 50% growth inhibition, read-out: cytotoxicity GI50, Colon HCT-116
Description: as §1

[10] = buffer, pH 7.4

## CC1CCCC=CC2CC(O)CC2C(O)C(O)C(O)C(=O)O1 (centres unmarked) [Compound 26, 2,3-Dihydro-2,3-dihydroxybrefeldin A]
[1]
  GI50: 2.4 µM
[2]
  GI50: 2.7 µM
[3]
  MGM (mean graph midpoint for growth inhibition): 3.0 µM and 2.3 µM
[4]
  GI50: 0.68 µM
[5]
  GI50: 3.8 µM
[6]
  GI50: 6.7 µM
[7]
  GI50: 1.6 µM
[8]
  GI50: 5 µM

## C[C@H]1CCC/C=C/[C@@H]2C[C@H](O)C[C@H]2[C@H](O)[C@H]([S+]([O-])c2ccc(O)cc2)CC(=O)O1 (stereo partly drawn) [Compound 14, 2,3-Dihydro-(3R)-(4′-hydroxyphenylsulfinyl)brefeldin A]
[1]
  GI50: 0.025 µM
[2]
  GI50: 0.05 µM
[3]
  MGM (mean graph midpoint for growth inhibition): 0.037 µM
[4]
  GI50: 0.017 µM
[5]
  GI50: 0.042 µM
[6]
  GI50: 0.118 µM
[7]
  GI50: 0.03 µM
[8]
  GI50: 0.088 µM
[9]
  GI50: 0.026 µM

## COC(=O)CC[S+]([O-])C1CC(=O)OC(C)CCCC=CC2CC(O)CC2C1O [Compound 13, 2,3-Dihydro-(3R)-(2′-methoxycarbonylethylsulfinyl)brefeldin A]
[10]
  half-life for the conversion of the sulfoxide to brefeldin A: 87.4 h

## C[C@H]1CCC/C=C/[C@@H]2C[C@H](OC(=O)CCC(=O)O)C[C@H]2[C@H](OC(=O)CCC(=O)O)/C=C/C(=O)O1 [Compound 24, Brefeldin A Disuccinate]
[1]
  GI50: > 100 µM
[2]
  GI50: > 100 µM
[3]
  MGM (mean graph midpoint for growth inhibition): 89 µM
[4]
  GI50: > 100 µM
[5]
  GI50: > 100 µM
[6]
  GI50: > 100 µM
[7]
  GI50: > 100 µM
[8]
  GI50: > 100 µM
[9]
  GI50: > 100 µM

## CC1CCCC=CC2CC(O)CC2C(O)C([S+]([O-])C[C@H](N)C(=O)O)CC(=O)O1 (stereo partly drawn) [Compound 21, 2,3-Dihydro-(3R)-(S-L-cysteinyl)brefeldin A Sulfoxide]
[1]
  GI50: 0.039 µM
[2]
  GI50: 0.16 µM
[3]
  MGM (mean graph midpoint for growth inhibition): 0.096 µM
[4]
  GI50: 0.038 µM
[5]
  GI50: 0.05 µM
[6]
  GI50: 0.43 µM
[7]
  GI50: 0.038 µM
[8]
  GI50: 0.7 µM
[9]
  GI50: 0.091 µM

## Brefeldin A 8 0-Succinate [Compound 22]
[3]
  MGM (mean graph midpoint for growth inhibition): 2.5 µM

## CC1CCCC=CC2CC(O)CC2C(O)[C@H](SCC(O)CO)CC(=O)O1 (stereo partly drawn) [Compound 8, 2,3-Dihydro (3R)-(2′,3′-dihydroxypropylthio) brefeldin A]
[1]
  GI50: 22 µM
[2]
  GI50: 34 µM
[3]
  MGM (mean graph midpoint for growth inhibition): 23 µM
[4]
  GI50: 32 µM
[5]
  GI50: 36 µM
[6]
  GI50: 18 µM
[7]
  GI50: 16 µM
[8]
  GI50: 33 µM
[9]
  GI50: 36 µM

## CC1CCCC=CC2CC(O)CC2C(O)C(SCCN)CC(=O)O1 [Compound 9, 2,3-Dihydro-(3R)-(2′)-aminoethylthio)brefeldin A]
[1]
  GI50: 2.2 µM
[3]
  MGM (mean graph midpoint for growth inhibition): 2.5 µM
[4]
  GI50: 4.9 µM
[7]
  GI50: 2.7 µM
[8]
  GI50: 3.9 µM
[9]
  GI50: 3.5 µM

## CC1CCCC=CC2CC(O)CC2C(O)[C@H]([S+]([O-])CCO)CC(=O)O1 (stereo partly drawn) [Compound 15, 2,3-Dihydro-(3R)-(2′-hydroxyethylsulfinyl)brefeldin A]
[1]
  GI50: 0.19 µM
[2]
  GI50: 0.65 µM
[3]
  MGM (mean graph midpoint for growth inhibition): 0.11 µM
[4]
  GI50: 0.058 µM
[5]
  GI50: 0.09 µM
[6]
  GI50: 0.26 µM
[7]
  GI50: 0.064 µM
[10]
  half-life for the conversion of the sulfoxide to brefeldin A: 4.81 h
[8]
  GI50: 0.29 µM
[9]
  GI50: 0.21 µM

## COc1ccc(S[C@@H]2CC(=O)OC(C)CCCC=CC3CC(O)CC3C2O)cc1 (stereo partly drawn) [Compound 10, 2,3-Dihydro-(3R)-(4′-methoxyphenylthio)brefeldin A]
[1]
  GI50: 22 µM
[2]
  GI50: 30 µM
[3]
  MGM (mean graph midpoint for growth inhibition): 31 µM
[4]
  GI50: 26 µM
[5]
  GI50: 19 µM
[6]
  GI50: 36 µM
[7]
  GI50: 29 µM
[8]
  GI50: 24 µM
[9]
  GI50: 33 µM

## CC1CCCC=CC2CC(OC(=O)CCCC(=O)O)CC2C(OC(=O)CCCC(=O)O)C=CC(=O)O1 (centres unmarked) [Compound 25, Brefeldin A Diglutarate]
[1]
  GI50: > 100 µM
[2]
  GI50: > 100 µM
[3]
  MGM (mean graph midpoint for growth inhibition): 98 µM
[4]
  GI50: > 100 µM
[5]
  GI50: > 100 µM
[6]
  GI50: > 100 µM
[7]
  GI50: > 100 µM
[8]
  GI50: > 100 µM
[9]
  GI50: > 100 µM
